This is an account of results in patent publication US8129424B2, “Indole derivatives as histamine 3 receptor inhibitors for the treatment of cognitive and sleep disorders, obesity and other CNS disorders” (Athersys, Inc., priority 2005, dated 2012).

Structures are written as SMILES.

Broadly, the IC50 is the concentration needed to halve the response being measured.

Assay [1] concerns the target T1, human histamine H3 receptor (Homo sapiens, UniProt Q9Y5N1).
T1 construct: expressed in transfected cells; host or cells: HT1080-Gqαi5 cells (human), pFG8-HH3 RAGE vector integrated; methotrexate-amplified clone RAGE-H3
In words: Calcium mobilization assay (FLIPR), inhibition of (R)-α-methylhistamine-stimulated Ca2+ flux in RAGE-H3 cells. Format: cell-based. To be noted: determined using FLIPR. Here is the method: (§1) The human histamine H3 receptor was stably expressed in HT1080 cells containing the chimeric G-protein, Gq[…]i5 (Coward et al., Anal Biochem 1999; 270:242-8). HT1080-Gqαi5 cells were grown in alpha-modified MEM containing 10% fetal bovine serum and 7 μg/ml blasticidin at 37° C. in 5% CO2/95% atmosphere. Cells (4.8×10^9) were irradiated with 50 rads from a ^137Cs source and the pFG8-HH3 RAGE (Random Activation of Gene Expression; see Harrington et al., Nature Biotechnology. 2001; 19:440-45) vector was subsequently integrated into the cells via electroporation (250V, 600 μF, 50Ω). The RAGE vector pFG8-HH3 contained cDNA sequence coding for the first exon (83 amino acids) of human H3 receptor. After electroporation, cells were plated in T75 flasks and grown in alpha-modified MEM. The culture medium was replaced 48 hours after electroporation with alpha-modified MEM, 10% fetal bovine serum, 500 μg/ml hygromycin B and 3 μg/ml puromycin. Medium was replaced every four days during cell expansion. To identify RAGE activated cells expressing the H3 receptor, pools of approximately 10,000 colonies (5×10^7-1.5×10^8 cells total) were screened by PCR for the desired gene product (using primers specific to the RAGE vector and exon 2 of the H3 receptor). […] Positive 100 cells/well pools were identified by PCR, confirmed by sequencing, and subsequently subcloned to 0.8 cells/well. Once clones expressing the H3 receptor were identified by PCR analysis, assays (FLIPR or radioligand binding) were performed to confirm that the activated gene produced functional protein. The protein expression in the initial clones obtained from the RAGE library was increased by growth in the presence of methotrexate. Since the integrated RAGE vector contains the DHFR gene, such treatment selects for cells that have amplified the genetic locus containing the RAGE insert. Subclones obtained after methotrexate amplification were tested for functional activity in FLIPR assays to identify the clone that was most suitable for HTS. The final HT1080-Gqαi5 RAGE clone (RAGE-H3) expressing the human histamine H3 receptor was grown in alpha-modified MEM containing 10% fetal bovine serum, 3 μg/ml puromycin, 500 μg/ml hygromycin B, 3.2 μM methotrexate at 37° C. in 5% CO2/95% atmosphere.
RAGE-H3 or HT1080-mH3 cells were seeded in black 384-well plates and incubated overnight at 37° C. in a 5% CO2/95% atmosphere. After removing medium, cells were treated with CsCl Ringer's buffer (136 mM CsCl, 5.4 mM KCl, 5.5 mM D-Glucose, 20 mM Hepes, pH 7.4, 2.1 mM MgCl2, 1.2 mM CaCl2) containing the Calcium 3 dye (Molecular Device, CA) and probenecid (3.75 mM) for 60 minutes, according to manufacture's instruction. Compounds were diluted in CsCl Ringer's buffer containing 0.2% bovine serum albumin and 1.0% DMSO. The dose response of (R)-α-methylhistamine-stimulated Ca^2+ flux was measured on a Fluorometric Imaging Plate Reader (FLIPR, Molecular Devices, CA) and the concentration of (R)-α-methylhistamine to stimulate 75% of maximum response was used to test the inhibitory effect of compounds.
All data were analyzed by nonlinear least squares curve fitting using Prism 4.0 software. The KD and Bmax for [^125I]iodoproxyfan were derived from the equation RL=RtL/(KD+L), where RL is concentration of receptor-bound ligand at equilibrium, L is the free ligand concentration, and Rt is the total receptor concentration (i.e., Bmax). For competition binding experiments, IC50 values (the concentration of compound producing 50% inhibition of specific binding) and Hill Coefficients (nH) were derived from fitting the data to a 4-parameter logistic equation. Apparent Ki values were calculated using the Cheng-Prussof equation of Ki=IC50/(1+(L/KD)), where L is the ligand concentration. […]
A general note: A change in cytosolic calcium serves as a functional read-out for many receptors and channels.

Assay [2] concerns the target T1, human histamine H3 receptor. The assay is described as follows: Radioligand competition binding assay with [125I]iodoproxyfan on RAGE-H3 cell membranes. To be noted: [125I]iodoproxyfan competition binding, apparent Ki by Cheng-Prussof equation. The protocol:
Representative compounds of the present invention that were prepared by the procedures of Examples 1-41 were evaluated in binding assays against cells expressing human H3 receptor by the following procedure.
as §1
RAGE-H3 cells (10^9) were washed twice with cold PBS, scraped off the plates, and centrifuged at 1000×g for 5 minutes. Cells were resuspended in ice-cold 10 mM Tris HCl, pH 7.4, containing 5 mM EDTA and protease inhibitor cocktail tablets (Roche Molecular Biochemicals). After incubating on ice for 10 minutes, the cells were homogenized with a dounce homogenizer or a polytron tissue grinder, and centrifuged at 1000×g for 10 minutes at 4° C. The resulting supernatant was centrifuged at 32,000×g for 30 minutes at 4° C. The membrane pellets were resuspended in 50 mM Tris HCl, pH 7.4, and stored at −80° C. until use. Protein concentration was determined by the Bradford method (Bio-Rad Laboratories, CA).
Binding assays were carried out in 96-well polypropylene plates in 50 mM Tris HCl, pH 7.4, containing 1 mM EDTA. Reaction mixtures contained 100 μl of membrane suspension, 50 of 4% DMSO, and 50 μl of increasing amounts of [^125I]iodoproxyfan (final concentration 0.0005-1.8 nM for human H3 receptor saturation binding assay). Nonspecific binding was defined by adding 10 μM clobenpropit to the reaction mixtures. Competition binding assays were performed in a reaction mixture containing 100 μl of membrane suspension (˜20 μg of protein/well), 50 μl of [^125I]iodoproxyfan (final concentration of ˜0.15 nM) and 50 μl of test compound. Compounds were dissolved in DMSO and then diluted with 4% DMSO; the final maximal DMSO concentration in the binding assays was 1%. […]
Background: In a radioligand displacement assay an active substance lowers the binding of a labelled ligand.

For assay [3], the system named is H3 receptor. The conditions noted are these: cat, cited from earlier work.
Assay [4] addresses T2, H3 receptor (Rattus norvegicus, UniProt Q9QYN8).
T2 construct: host or cells: living rats
The conditions noted are these: rats; cited from earlier work.

The test system of assay [5] is H3 receptor. The conditions noted are these: in vivo studies; cited from earlier work.
For assay [6] the following is noted: cited from earlier work.

T1 sequence (Q9Y5N1 whole entry): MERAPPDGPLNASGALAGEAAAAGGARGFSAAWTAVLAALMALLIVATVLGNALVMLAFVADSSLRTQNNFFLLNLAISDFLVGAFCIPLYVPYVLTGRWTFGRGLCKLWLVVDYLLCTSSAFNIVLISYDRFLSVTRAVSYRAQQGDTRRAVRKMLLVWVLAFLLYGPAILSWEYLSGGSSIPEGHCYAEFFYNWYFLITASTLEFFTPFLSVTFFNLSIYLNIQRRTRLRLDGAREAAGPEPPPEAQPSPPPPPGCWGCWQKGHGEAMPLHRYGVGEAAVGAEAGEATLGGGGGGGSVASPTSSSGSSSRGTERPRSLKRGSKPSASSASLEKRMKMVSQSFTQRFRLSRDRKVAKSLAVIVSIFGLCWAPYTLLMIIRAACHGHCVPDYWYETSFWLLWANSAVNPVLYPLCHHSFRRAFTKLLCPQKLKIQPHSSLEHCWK
T2 sequence (Q9QYN8 whole entry): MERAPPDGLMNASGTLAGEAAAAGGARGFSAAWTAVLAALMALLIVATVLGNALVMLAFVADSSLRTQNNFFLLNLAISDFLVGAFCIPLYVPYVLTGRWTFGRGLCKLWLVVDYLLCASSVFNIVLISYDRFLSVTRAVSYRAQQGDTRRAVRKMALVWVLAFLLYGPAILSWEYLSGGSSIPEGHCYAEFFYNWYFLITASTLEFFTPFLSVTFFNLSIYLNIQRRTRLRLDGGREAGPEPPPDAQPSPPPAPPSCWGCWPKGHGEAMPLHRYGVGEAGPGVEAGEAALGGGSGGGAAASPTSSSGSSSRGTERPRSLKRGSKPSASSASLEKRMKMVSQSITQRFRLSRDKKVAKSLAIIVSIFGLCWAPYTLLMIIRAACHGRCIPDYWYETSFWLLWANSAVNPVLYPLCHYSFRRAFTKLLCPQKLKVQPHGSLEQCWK

With `c1ccc2c(c1)ccn2-c1ccc(OCCCN2CCCC2)cc1` [Example 4, 1-[4-(3-Pyrrolidin-1-ylpropoxy)phenyl]-1H-indole], the half-maximal inhibitory concentration (IC50) in assay [1] was below 0.1 µM.

For `COc1ccc2c(c1)cc(C)n2-c1ccc(OCCCN2CCCC2)cc1` [Example 5, 5-Methoxy-2-methyl-1-[4-(3-pyrrolidin-1-ylpropoxy)phenyl]-1H-indole], in assay [1], the half-inhibitory concentration (IC50) was below 0.1 µM.

Consider `Cc1ccc2c(ccn2-c2ccc(OCCCN3CCCC3)cc2)c1` [Example 6, 5-Methyl-1-[4-(3-pyrrolidin-1-ylpropoxy)phenyl]-1H-indole], for which, in assay [1], the IC50 was below 1 µM.

For `Brc1ccc2c(ccn2-c2ccc(OCCCN3CCCC3)cc2)c1` [Example 7, 5-Bromo-1-[4-(3-pyrrolidin-1-ylpropoxy)phenyl]-1H-indole], in assay [1], the IC50 was below 1 µM.

As to `Clc1cccc2c1ccn2-c1ccc(OCCCN2CCCC2)cc1` [Example 8, 4-Chloro-1-[4-(3-pyrrolidin-1-ylpropoxy)phenyl]-1H-indole], the concentration for half-maximal inhibition (IC50) in assay [1] was below 1 µM.

As for `COc1ccc2c(ccn2-c2ccc(OCCCN3CCCC3)cc2)c1` [Example 9, 5-Methoxy-1-[4-(3-pyrrolidin-1-ylpropoxy)phenyl]-1H-indole], the IC50 in assay [1] is below 1 µM.

For the compound `Clc1ccc2c(ccn2-c2ccc(OCCCN3CCCC3)cc2)c1` [Example 10, 5-Chloro-1-[4-(3-pyrrolidin-1-ylpropoxy)phenyl]-1H-indole], the IC50 in assay [1] was below 1 µM.

In the case of `COc1cc(-n2c(C)cc3ccccc32)ccc1OCCCN1CCCC1` [Example 14, 1-[3-Methoxy-4-(3-pyrrolidin-1-ylpropoxy)phenyl]-2-methyl-1H-indole], the IC50 in assay [1] is below 1 µM.

On to `Cc1cc2ccccc2n1-c1ccc(OCCCN2CCCC2)c(Cl)c1` [Example 15, 1-[3-Chloro-4-(3-pyrrolidin-1-ylpropoxy)phenyl]-2-methyl-1H-indole], for which the half-maximal inhibitory concentration (IC50) in assay [1] is below 1 µM.

For `COc1ccc2c(c1)cc(C)n2-c1ccc(C#CCCN2CCCC2)cc1` [Example 17, 5-Methoxy-2-methyl-1-[4-(4-pyrrolidin-1-ylbut-1-ynyl)phenyl]-1H-indole], in assay [1], the concentration for half-maximal inhibition (IC50) is below 0.1 µM.

As for `c1ccc2c(c1)cc(C1CC1)n2-c1ccc(OCCCN2CCCC2)cc1` [Example 37, 2-Cyclopropyl-1-[4-(3-pyrrolidin-1-ylpropoxy)phenyl]-1H-indole], the half-maximal inhibitory concentration (IC50) in assay [1] was below 0.1 µM.

Regarding `COCc1cc2cc(C)ccc2n1-c1ccc(OCCCN2CCCC2)cc1` [Example 43, 5-Methyl-2-methoxymethyl-1-[4-(3-pyrrolidin-1-ylpropoxy)phenyl]-1H-indole], in assay [2], the Ki is below 0.01 µM.

Turning to `COCc1cc2cc(F)ccc2n1-c1ccc(OCCCN2CCCC2)cc1` [Example 44, 5-Fluoro-2-methoxymethyl-1-[4-(3-pyrrolidin-1-ylpropoxy)phenyl]-1H-indole], in assay [2], the Ki is below 0.01 µM.

Take `C[C@@H](N)Cc1cnc[nH]1` [RAMHA]: the “deep slow wave sleep” value in the assay on H3 receptor [3] (oral administration) was “significant increase”.

For the compound `S=C(NC1CCCCC1)N1CCC(c2cnc[nH]2)CC1` [thioperamide], on H3 receptor [4], the “slow-wave and REM sleep” value is on record as “decrease”; the wakefulness result is on record as “increase wakefulness”. Besides, the “synthesis and release of histamine” value with H3 receptor [5] was “increase”. Further, in assay [6] (after electrically-induced convulsions), the “durations of every convulsive phase” value was “significantly and dose-dependently decrease”. The electroconvulsive threshold result in assay [6] (in vivo) is recorded as “increase”. In addition, in the assay with H3 receptor [3], the wakefulness entry is “enhanced wakefulness in a dose-dependent fashion”.
